Data published in patent publication US11473088B2, “Method of treating cancer and method of sensitizing cancer cells to the action of chemotherapeutic agents via growth hormone receptor antagonists or knock down” (Ohio University, priority 2016, dated 2022).
“Also recorded” adds a separate entry of the source. Where two headings read alike, the source gives them in different places. One block for each molecule: values may come before it.

Assays:
four melanoma cell lines = assay: Cell proliferation / EC50 determination; details: read-out: EC50 ranges for the four melanoma cell lines
Procedure: (§4) A 1% (w/v) resazurin (Sigma-Aldrich #R7017) solution in 1× PBS was made and filter-sterilized. The final concentration of resazurin in the assay was 0.004%. Inside the proliferating cells, mildly fluorescent blue resazurin is reduced to a bright pink fluorescent product called resorufin (stable for 4 hours), which allows for a quantitative measure of the percentage of proliferating cells. In all cases, cells were incubated at 37° C. in 5% CO2 for 45-60 min. for adequate sensitivity of detection. Briefly, cells were seeded at 10,000 cells/cm^2 into 96-well plates and transfected as described above. The resazurin assay was performed 60 hours after transfection (unless specified otherwise) and resorufin absorbance was measured at 570 nm (reference wavelength=600 nm) using Spectramax250 (Molecular Devices, Sunnyvale, Calif.) and SoftmaxPro software.
More specifically, SK-MEL-28 cells (FIG. 8A, panel 1), MALME-3M cells (FIG. 8A, panel 2), MDA-MB-435 cells (FIG. 8A, panel 3), and SK-MEL-5 cells (FIG. 8A, panel 4) were treated with increasing doses of hGH for 48 hr. and cell proliferation was estimated using a resazurin-based metabolic assay.
For treatment of melanoma cells, the following five anti-tumor compounds were obtained from the sources mentioned: cisplatin (Calbiochem #232120, Darmstadt, Germany), doxorubicin (Sigma Aldrich #D-1515, St. Louis, Mo.), oridonin (Sigma-Aldrich #O-9639, St. Louis, Mo.), Paclitaxel (Sigma-Aldrich #C-7191), and vemurafenib/PLX4032 (ApexBio #A-3004, Houston, Tex.). […] In the subsequent experiments, the following drug concentrations were used unless specified otherwise: cisplatin (0.5 μM), doxorubicin (10 nM), oridonin (0.5 μM), paclitaxel (1 nM), vemurafenib (2 nM). Treatments were performed for 24 hours starting 48 hours post-transfection with siRNA.

MDA-MB-435 cells [1] = assay: ABC transporter RNA (RT-qPCR) following drug treatment; format: cell-based, human; details: 24 hr sub-EC50 drug, 50 ng/mL hGH
SK-MEL-5 cells [2] = assay: as above; format: cell-based, human
SK-MEL-5 cells [3] = assay: as above; format: cell-based, human; details: 24 hr. drug exposure, GHR-siRNA vs scr-siRNA transfected
Procedure: (§1) Transfection was performed using siLentFect lipid reagent (Biorad #170-3360, Hercules, Calif.) following the manufacturer's protocol. […] Media was changed after 24 hours. RNA levels were analyzed 48 hours post transfection while protein levels were analyzed at 60 hours post-transfection. For drug treatment, drugs at the specified concentrations noted above were added to the cells 48 hours post-transfection and treated for 24 hours prior to quantitation of RNA expressions.
(§2) RNA extraction, RT-qPCR, and protein extraction were performed as described in Example 1, above.

MALME-3M cells [4] = assay: as above; format: cell-based, human; details: for Efflux Pumps (expression level change, p < 0.05): ABC-transporter pumps with significantly down-regulated RNA expressions: 24 hr. drug exposure, GHR-siRNA vs scr-siRNA transfected
Procedure: as §1, §2

SK-MEL-28 cells [5] = assay: as above; format: cell-based, human; details: for Efflux Pumps (expression level change, p < 0.05): ABC-transporter pumps with significantly down-regulated RNA expressions: 24 hr. drug exposure, GHR-siRNA vs scr-siRNA transfected
Procedure: as §1, §2

MDA-MB-435 cells [6] = assay: as above; format: cell-based, human; details: 24 hr. drug exposure, GHR-siRNA vs scr-siRNA transfected
Procedure: as §1, §2

SK-MEL-28 cells [7] = assay: RT-qPCR time course after doxorubicin addition; format: cell-based, human; details: 188 nM doxorubicin
Procedure: (§3) Following treatments, cells were lysed, and RNA extraction was performed using IBI Tri-isolate kit (IBI), following manufacturer's protocol. RT-qPCR was performed as described previously.

SK-MEL-28 cells [8] = assay: EC50 of doxorubicin (cell viability); format: cell-based; details: Homo sapiens, Example 3, read-out: EC50 of doxorubicin against SK-MEL-28 cells
Procedure: Cell viability, following treatments, was performed using Invitrogen's PrestoBlue cell viability assay system. As described previously, it is a resazurin based assay which is reduced to resorufin (absorption at 570 nm) by the reducing environment of metabolically viable cells. It was performed in a 96-well system as described previously.

SK-MEL-28 cells [9] = assay: Cell proliferation (resazurin) assay; format: cell-based; details: Homo sapiens, EC50 levels (cisplatin 10 μM, paclitaxel 5 nM), 24 hr, with and without siRNA mediated KD of GHR
Procedure: as §4

MALME-3M cells [10] = assay: Cell proliferation (resazurin) assay; format: cell-based, human; details: Homo sapiens, EC50 levels (cisplatin 10 μM, paclitaxel 5 nM), 24 hr, with and without siRNA mediated KD of GHR
Procedure: For hGH treatment, 16 hours after seeding (or 24 hours post-transfection), the cells were serum-starved for 2 hours in serum-free growth media, and hGH (phosphate buffered saline was used as control where applicable) was added at the noted concentrations (0-, 5-, 50-, and 150 ng/ml). Cells were subsequently incubated for 24 hours before evaluating RNA levels. Recombinant hGH was purchased from Antibodies Online (#ABIN2017921, Atlanta, Ga.).
On the other hand, a pronounced drop in proliferation levels in all the cell lines was seen when GHR was knocked down. […] Cell proliferation was estimated using resazurin-based metabolic assay. […] Averages of at least four independent experiments performed in quadruplicate were taken [*, p<0.05, Students t-test]. The results may indicate that human melanoma cells utilize GH-GHR interaction to drive aggressive tumor phenotypes.
To determine this, and referring now to FIGS. 35A-35D, changes in amounts of calcein retained inside cells following treatment with calcein-AM ester was analyzed by the fluorescence readout from intracellular calcein. Increased abundance of transporter pumps is reflected by decreased levels of intracellular calcein. […] Assays were performed 48 hr. post-transfection with either scr-siRNA or GHR-siRNA. […] SK-MEL-28 (FIG. 35C) and MALME-3M (FIG. 35D) cells were exposed to DMSO (vehicle), or 10 um cisplatin (Cis), or 5 nM paclitaxel (Pac) for 24 hr. Treatments were done 48 hr. post-transfection with either scr-siRNA (scr) or GHR-siRNA (GHR). Mean of three independent experiments performed in triplicate was taken. [*, p<0.05, Students t test, n=3]

[11] = test system: B16F10 mouse melanoma cells; assay: ABC-transporter RNA in bGH treated cells (RT-qPCR); format: cell-based
Procedure: as §3
GH upregulates ABC-transporter expression in mouse melanoma B16F10 cells in vitro and in vivo: B16F10 mouse melanoma cells were treated with 50 or 500 ng/mL bGH for 6, 24, 48 or 72 hr and the changes in the RNA levels of specific multidrug exporter pumps were analyzed over time and GH dose. […] RNA extracted from B16F10 tumors grown in GHRKO or bGH mice were analyzed for the above ABC-transporters. In bGH mice, the tumor cells and resulting tumors were exposed in vivo to high endogenous GH and high IGF-1; while in GHRKO mice, the tumor cells and resulting tumors were exposed in vivo to high GH but low IGF1.

[12] = 24-hour drug, presence vs absence of 50 ng/mL GH
[13] = 24 hr sub-EC50 drug, 50 ng/mL hGH

Molecule: N.N.[Cl][Pt][Cl] [cisplatin]
- EC50 (four melanoma cell lines): 3000 to 15000 nM
- ABCB1 RNA level in response to drug (MDA-MB-435 cells [1]): Significant upregulation
- ABCC2 RNA level in response to drug (MDA-MB-435 cells [1]): significantly increased
- ABCG1 RNA level in response to drug (MDA-MB-435 cells [1]): surged
- ABCG2 RNA level in response to drug (MDA-MB-435 cells [1]): significantly upregulated
- ABCB5 RNA expression on drug exposure in presence of GH (SK-MEL-5 cells [2]; [12]): increase
- ABCB8 RNA expression on drug exposure in presence of GH (SK-MEL-5 cells [2]; [12]): increase
- ABCG2 RNA expression on drug exposure in presence of GH (SK-MEL-5 cells [2]; [12]): increase
- Efflux Pumps (expression level change, p < 0.05): ABC-transporter pumps with significantly down-regulated RNA expressions (SK-MEL-5 cells [3]): ABCB1, ABCC1, ABCC2, ABCG2
- ABCB8 RNA expression on drug exposure in presence of GH (MALME-3M cells [4]; [12]): increase
- Efflux Pumps (expression level change, p < 0.05): ABC-transporter pumps with significantly down-regulated RNA expressions (MALME-3M cells [4]): ABCB1
- ABCB1 RNA level in response to drug (SK-MEL-28 cells [5]; [13]): Significant upregulation
- ABCB5 RNA level in response to drug (SK-MEL-28 cells [5]; [13]): significantly upregulated
- ABCG1 RNA level in response to drug (SK-MEL-28 cells [5]; [13]): surged
- Efflux Pumps (expression level change, p < 0.05): ABC-transporter pumps with significantly down-regulated RNA expressions (SK-MEL-28 cells [5]): ABCB1, ABCB5, ABCB8, ABCG1
- Efflux Pumps (expression level change, p < 0.05): ABC-transporter pumps with significantly down-regulated RNA expressions (MDA-MB-435 cells [6]): ABCB1, ABCB8, ABCC2, ABCG1,; also recorded: ABCG2

Molecule: COc1cccc2c1C(=O)c1c(O)c3c(c(O)c1C2=O)C[C@@](O)(C(=O)CO)C[C@@H]3O[C@H]1C[C@H](N)[C@H](O)[C@H](C)O1 [doxorubicin]
- EC50 (four melanoma cell lines; Homo sapiens): 25 to 100 nM
- ABCB5 RNA level in response to drug (MDA-MB-435 cells [1]): significantly upregulated
- ABCB8 RNA level in response to drug (MDA-MB-435 cells [1]): significant upregulation
- ABCB5 RNA expression on drug exposure in presence of GH (SK-MEL-5 cells [2]; [12]): increase
- ABCB8 RNA level in response to drug (SK-MEL-5 cells [2]; [13]): significant upregulation
- ABCG2 RNA level in response to drug (SK-MEL-5 cells [2]; [13]): significantly upregulated
- rise in ABCB1 RNA (SK-MEL-28 cells [7]; 12-hr): 4 fold
- rise in ABCG1 RNA (SK-MEL-28 cells [7]; 12-hr): 8 fold
- transcript levels of CDH2, VIM and SNAI1 (SK-MEL-28 cells [7]; 12-hr after addition): increased significantly
- GER levels (RNA) (SK-MEL-28 cells [7]; by 24-hr): concomitant rise
- rise in autocrine GH transcript (SK-MEL-28 cells [7]; by 24-hr): > 2 fold
- RNA levels of ABCB8, ABCC1 and ABCC4 drug efflux pumps (SK-MEL-28 cells [7]; end of 24 hr): significantly higher levels
- increase in CDH2 transcript (SK-MEL-28 cells [7]; end of 24 hr): > 3.5 fold
- increase in SNAI1 transcript (SK-MEL-28 cells [7]; end of 24 hr): > 2 fold
- reduction in the epithelial marker CDH1/E-cadherin (SK-MEL-28 cells [7]; end of 24 hr): > 8 fold
- Efflux Pumps (expression level change, p < 0.05): ABC-transporter pumps with significantly down-regulated RNA expressions (SK-MEL-5 cells [3]): ABCB1, ABCB8, ABCG2
- ABCC2 RNA expression on drug exposure in presence of GH (MALME-3M cells [4]; [12]): increase
- ABCG1 RNA expression on drug exposure in presence of GH (MALME-3M cells [4]; [12]): increase
- ABCB8 RNA level in response to drug (MALME-3M cells [4]; [13]): significant upregulation
- ABCG1 RNA level in response to drug (MALME-3M cells [4]; [13]): surged
- Efflux Pumps (expression level change, p < 0.05): ABC-transporter pumps with significantly down-regulated RNA expressions (MALME-3M cells [4]): ABCB8, ABCC1, ABCG1, ABCG2
- ABCB1 RNA expression on drug exposure in presence of GH (SK-MEL-28 cells [5]; [12]): upregulation
- ABCB8 RNA expression on drug exposure in presence of GH (SK-MEL-28 cells [5]; [12]): upregulation
- ABCB5 RNA level in response to drug (SK-MEL-28 cells [5]; [13]): significantly upregulated
- ABCG1 RNA level in response to drug (SK-MEL-28 cells [5]; [13]): surged
- ABCG2 RNA level in response to drug (SK-MEL-28 cells [5]; [13]): significantly upregulated
- Efflux Pumps (expression level change, p < 0.05): ABC-transporter pumps with significantly down-regulated RNA expressions (SK-MEL-28 cells [5]): ABCB8, ABCC1, ABCG1, ABCG2
- Efflux Pumps (expression level change, p < 0.05): ABC-transporter pumps with significantly down-regulated RNA expressions (MDA-MB-435 cells [6]): ABCB1, ABCB5, ABCC2, ABCG1
- EC50 (SK-MEL-28 cells [8]): 188 nM

B1: bGH: growth hormone (bGH) added at 50 or 500 ng/mL to B16F10 mouse melanoma cells (protein, UniProt P01246 27-217, looked up)
Somatotropin: AFPAMSLSGLFANAVLRAQHLHQLAADTFKEFERTYIPEGQRYSIQNTQVAFCFSETIPAPTGKNEAQQKSDLELLRISLLLIQSWLGPLQFLSRVFTNSLVFGTSDRVYEKLKDLEEGILALMRELEDGTPRAGQILKQTYDKFDTNMRSDDALLKNYGLLSCFRKDLHKTETYLRVMKCRRFGEASCAF
- RNA expression of Abcb1, Abcg1 and Abcg2 ([11]; 50 and 500 ng/mL bGH, 24, 48, and 72 hr): significantly higher RNA expression
- levels of Abcb8, Abcc1, Abcc2, and Abcc4 vs untreated controls ([11]; any dose or time-point in vitro): not significantly different

Second part, led by results:

- EC50 (four melanoma cell lines; Homo sapiens): 2000 to 8000 nM
Molecule: C=C1C(=O)[C@]23[C@H](O)[C@H]1CC[C@H]2[C@@]12CO[C@]3(O)[C@@H](O)[C@@H]1C(C)(C)CC[C@@H]2O [oridonin]

- EC50 (four melanoma cell lines; Homo sapiens): 2 to 8 nM
Molecule: CC(=O)O[C@H]1C(=O)[C@@]2(C)[C@H]([C@H](OC(=O)c3ccccc3)[C@]3(O)C[C@H](OC(=O)[C@H](O)[C@@H](NC(=O)c4ccccc4)c4ccccc4)C(C)=C1C3(C)C)[C@]1(OC(C)=O)CO[C@@H]1C[C@@H]2O [paclitaxel, Paclitaxel]
- ABCG1 RNA level in response to drug (MDA-MB-435 cells [1]): surged
- ABCB5 RNA expression on drug exposure in presence of GH (SK-MEL-5 cells [2]; [12]): increase
- ABCB8 RNA level in response to drug (SK-MEL-5 cells [2]; [13]): significant upregulation
- ABCC1 RNA level in response to drug (SK-MEL-5 cells [2]; [13]): particularly upregulated
- ABCC2 RNA level in response to drug (SK-MEL-5 cells [2]; [13]): significantly increased
- inhibition at 0.005 µM (SK-MEL-28 cells [9]): > 90%
- inhibition at 0.005 µM (MALME-3M cells [10]): > 90%
- Efflux Pumps (expression level change, p < 0.05): ABC-transporter pumps with significantly down-regulated RNA expressions (SK-MEL-5 cells [3]): ABCB8, ABCC1, ABCC2
- ABCB8 RNA level in response to drug (MALME-3M cells [4]; [13]): significant upregulation
- ABCC2 RNA level in response to drug (MALME-3M cells [4]; [13]): significantly increased
- Efflux Pumps (expression level change, p < 0.05): ABC-transporter pumps with significantly down-regulated RNA expressions (MALME-3M cells [4]): ABCB8, ABCC1, ABCG1
- ABCG2 RNA expression on drug exposure in presence of GH (SK-MEL-28 cells [5]; [12]): upregulation
- ABCB5 RNA level in response to drug (SK-MEL-28 cells [5]; [13]): significantly upregulated
- ABCC1 RNA level in response to drug (SK-MEL-28 cells [5]; [13]): particularly upregulated
- ABCC2 RNA level in response to drug (SK-MEL-28 cells [5]; [13]): significantly increased
- ABCG1 RNA level in response to drug (SK-MEL-28 cells [5]; [13]): surged
- ABCG2 RNA level in response to drug (SK-MEL-28 cells [5]; [13]): significantly upregulated
- Efflux Pumps (expression level change, p < 0.05): ABC-transporter pumps with significantly down-regulated RNA expressions (SK-MEL-28 cells [5]): ABCB5, ABCC1, ABCG1, ABCG2
- Efflux Pumps (expression level change, p < 0.05): ABC-transporter pumps with significantly down-regulated RNA expressions (MDA-MB-435 cells [6]): ABCB5, ABCB8, ABCG1, ABCG2

- EC50 (four melanoma cell lines; Homo sapiens): 2 to 20 nM
Molecule: CCCS(=O)(=O)Nc1ccc(F)c(C(=O)c2c[nH]c3ncc(-c4ccc(Cl)cc4)cc23)c1F [vemurafenib]
